From patent US20160194358A1, “LINEAR PEPTIDE ANTIBIOTCS” (priority 2013, published 2016)
≈ marks a conversion by molar mass, not a printed value. Read-outs that look alike come from different tables or passages of the source. *1 amine or outer side, *2 acyl side, *3 side chain or, on linkers, in order; H or OH if unused. Where a SMILES comes first, the peptide text is derived from it. [ ]: non-standard residue; d: D form. The star is where a group is joined. ξ: configuration not given here. boroAla((+)-pinanediol) = C[C@H](N*)B1O[C@@H]2C[C@@H]3C[C@@H](C3(C)C)[C@]2(C)O1; Biphenylcarbonyl(4'-Bu) = CCCCc1ccc(-c2ccc(C(=O)*)cc2)cc1; Benzoyl(4-(4-Cl-Ph)) = O=C(c1ccc(-c2ccc(Cl)cc2)cc1)*; ξ3Amino2oxobutanoyl = CC(N[*:1])C(=O)C(=O)[*:2]; NH(2-(2-pyridyl)ethyl) = c1ccc(CCN*)nc1; X14 = O=C(c1ccc(Oc2ccc(Cl)cc2)cc1)*; X1 = C[C@H](N[*:1])C(=O)C(=O)[*:2]; X3 = CCCCc1ccc(C2CCN(*)CC2)cc1; Thr(3ξ) = CC(O)[C@H](N)C(=O)O; X9 = CC1(c2ccccc2)CCN(*)CC1; Decanoyl = CCCCCCCCCC(=O)*; boroAla = C[C@H](N*)B(O)O; X8 = NCCCCCCCCCCCCC(=O)*; Dab = NCC[C@H](N)C(=O)O; Dap = NC[C@H](N)C(=O)O; CO = O=C([*:1])[*:2]; NHtBu = CC(C)(C)N*; CF3 = FC(F)(F)*; NHcPr = C1CC1N*; NHiPr = CC(C)N*; CH2Cl = ClC*

Experiments:
[1] = system: Escherichia coli strain MC4100 IMP-4213, which harbors an LptD mutation; settings: E. coli MC4100 IMP-4213, 35° C., 22 hours
Summary of the method: (§1)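 CLSI broth microdilution in cation-adjusted Mueller Hinton Broth with 0.002% Tween-80, two-fold dilutions starting at 64 μg/ml.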

[2] = system: methicillin resistant Staphylococcus aureus (MRSA) strain USA300 (NRS384); settings: MRSA USA300 (NRS384), 35° C., 22 hours
Summary of the method: as §1

E. coli SPase = biological target: T1, E. coli SPase (Escherichia coli, UniProt P00803); test: Biochemical SPase activity assay, fluorogenic peptide substrate, E. coli enzyme; settings: 20 μM substrate, 10 minutes preincubation, read-out: IC 50 (nM) E. coli
T1 construct: Full length His-tagged E. coli SPase proteins; His; made in house; host or cells: E. coli BL21(DE3)
Method: Full length His-tagged E. coli SPase proteins were expressed in E. coli BL21(DE3) containing the plasmid pET23-lepB. Briefly, saturated overnight cultures grown in 20 ml of Luria-Bertani medium supplemented with ampicillin were subcultures into 1.5 L of Luria-Bertani, and shaken at 37° C. until an optical density at 600 nm of 0.4-0.5 was achieved.
(§2) Signal peptidase enzyme activity of the above proteins was measured using two fluorogenic peptide substrates (decanoyl-LSSPAYNO2A ? ADKabzPD and decanoyl-LTPTAYNO2A ? ASKKabzDD), where abz is the fluorescence donor 2-aminobenzamide, YNO2 is the fluorescence acceptor 3-nitrotyrosine, and the cleavage site is indicated with an arrow. Enzyme mix solution was prepared by diluting 2.5 nM of Escherichia coli or Staphylococcus aureus SPase protein into reaction buffers consisting of 20 mM PO4 pH 7.4, 100 mM NaCl, and 1% Elugent™ or octyl phenoxypolyethoxylethanol detergent at a concentration of 0.25% or 0.0625%. Reactions were initiated by the addition of substrate to a final concentration of 20 μM. Reaction progress was monitored by measuring the increase in fluorescence signal (excitation at 314 nm, emission at 416 nm) using a SpectraMax M2 fluorescence microplate reader. To determine IC50 values of test compounds, compound stock solutions were prepared in DMSO at a concentration of 1 mM. Three-folder serial dilutions of test compounds, starting at 10 μM, were prepared in enzyme mix solution and incubated at room temperature for 10 minutes. Following this incubation, fluorogenic substrate was added to a final concentration of 20 μM and the increase in fluorescence, corresponding to substrate cleavage, was monitored continuously at room temperature for 1 hour. Initial reaction rates were calculated based on the rate of increase in fluorescence during the reaction. Reaction rates were plotted as a function of compound concentration, and IC50 values are determined nonlinear regression analysis (SoftMaxPro 5.4, Molecular Devices™) of the sigmoidal dose-response curve.

S. aureus SPase = S. aureus SPase (Staphylococcus aureus, UniProt P0A070); test: biochemical; settings: IC 50 (nM) S. aureus, 20 μM substrate, 10 minutes preincubation
Method: Full length His-tagged S. aureus SPase protein was expressed similarly from E. coli BL21(DE3) containing the plasmid pCDF1-SaSpsB and purified similarly to the E. coli protein with the following exceptions. SPase protein was solubilized using 300 mM NaCl, 20 mM Tris pH 8.06, 5 mM Imidazole, 10% glycerol, 1% Triton X-100, prior to purification in Ni-NTA Superflow resin and resin bound protein was washed in a similar buffer containing 1% Elugent in place of Triton X-100 prior to protein eluted in wash buffer supplemented with 300 mM imidazole. […] All protein concentrations were determined by BCA assay.
as §2

T1 sequence (P00803 whole entry): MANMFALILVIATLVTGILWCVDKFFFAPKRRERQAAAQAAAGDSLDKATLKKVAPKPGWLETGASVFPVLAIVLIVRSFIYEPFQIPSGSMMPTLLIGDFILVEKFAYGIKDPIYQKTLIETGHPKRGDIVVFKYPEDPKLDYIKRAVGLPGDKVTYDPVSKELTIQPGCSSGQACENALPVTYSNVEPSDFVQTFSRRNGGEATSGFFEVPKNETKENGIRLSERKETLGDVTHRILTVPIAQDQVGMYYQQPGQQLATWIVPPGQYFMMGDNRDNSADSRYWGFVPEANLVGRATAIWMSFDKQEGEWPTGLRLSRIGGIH
Sequence of S. aureus SPase (P0A070 whole entry): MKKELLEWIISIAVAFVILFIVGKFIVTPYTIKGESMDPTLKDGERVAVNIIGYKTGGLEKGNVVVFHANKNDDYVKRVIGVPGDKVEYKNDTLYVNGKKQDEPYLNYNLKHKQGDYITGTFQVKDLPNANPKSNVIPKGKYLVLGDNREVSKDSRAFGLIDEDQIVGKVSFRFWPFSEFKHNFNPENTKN

| SMILES | MIC (μg/mL) E. coli ([1]; listed as 207 P2) [µg/mL] | MIC (μg/mL) S. aureus ([2]; listed as 207 P2) [µg/mL] | IC50 (E. coli SPase) [nM] | IC50 (S. aureus SPase) [nM] | MIC (μg/mL) E. coli [1] [µg/mL] | MIC (μg/mL) S. aureus [2] [µg/mL] | MIC (μg/mL) E. coli ([1]; listed as 205 P1) [µg/mL] | MIC (μg/mL) S. aureus ([2]; listed as 205 P1) [µg/mL] | MIC (μg/mL) E. coli ([1]; listed as 201 P2) [µg/mL] | MIC (μg/mL) S. aureus ([2]; listed as 201 P2) [µg/mL] |
| --- | --- | --- | --- | --- | --- | --- | --- | --- | --- | --- |
| CCCCc1ccc(-c2ccc(C(=O)N[C@@H](CCN)C(=O)N[C@H](C(=O)N[C@@H](C)C(=O)N[C@@H](CCCCN)C(=O)N[C@@H](C)C(=O)C3(C)CO3)[C@@H](C)O)cc2)cc1 (single isomer, unassigned) [Compound 207 P2] | 32 (≈ 41.8 µM) | 32 (≈ 41.8 µM) | 9900 | 1300 |  |  |  |  |  |  |
| C[C@H](NC(=O)[C@H](CCCCN)NC(=O)[C@H](C)NC(=O)[C@@H](NC(=O)[C@H](CCN)NC(=O)CCCCCCCCCCCCN)[C@@H](C)O)B1O[C@@H]2C[C@@H]3C[C@@H](C3(C)C)[C@]2(C)O1 [Compound 115] (X8-[Dab]TAK-{boroAla((+)-pinanediol)}) |  |  | 330 | 590 | >64 | 11 (≈ 13.2 µM) |  |  |  |  |
| C[C@H](NC(=O)[C@H](CCCCN)NC(=O)[C@H](C)NC(=O)[C@@H](NC(=O)[C@H](CN)NC(=O)c1ccc(Oc2ccc(Cl)cc2)cc1)[C@@H](C)O)B1O[C@@H]2C[C@@H]3C[C@@H](C3(C)C)[C@]2(C)O1 [Compound 129] (X14-[Dap]TAK-{boroAla((+)-pinanediol)}) |  |  | 3.6 | 120 | 4 (≈ 4.76 µM) | 2.8 (≈ 3.33 µM) |  |  |  |  |
| CC(=O)N[C@@H](CCN)C(=O)N[C@H](C(=O)N[C@@H](C)C(=O)N[C@@H](CCCCN)C(=O)N[C@@H](C)B1O[C@@H]2C[C@@H]3C[C@@H](C3(C)C)[C@]2(C)O1)[C@@H](C)O [Compound 113] (Ac-[Dab]TAK-{boroAla((+)-pinanediol)}) |  |  | 5700 | 1200 | >64 | >64 |  |  |  |  |
| C[C@H](NC(=O)[C@@H](NC(=O)[C@H](CN)NC(=O)c1ccc(-c2ccc(Cl)cc2)cc1)[C@@H](C)O)C(=O)N[C@@H](CCCCN)C(=O)N[C@@H](C)C(=O)C(=O)NC1CC1 [Compound 109] ({Benzoyl(4-(4-Cl-Ph))}-[Dap]TAK[X1]-NHcPr) |  |  | 820 | 2000 | 32 (≈ 42.3 µM) | 32 (≈ 42.3 µM) |  |  |  |  |
| CCCCc1ccc(C2CCN(C(=O)N[C@@H](CCCCN)C(=O)N[C@H](C(=O)N[C@@H](C)C(=O)N[C@@H](CCCCN)C(=O)N[C@@H](C)B3O[C@@H]4C[C@@H]5C[C@@H](C5(C)C)[C@]4(C)O3)[C@@H](C)O)CC2)cc1 [Compound 127] ({X3-CO}-KTAK-{boroAla((+)-pinanediol)}) |  |  | 64 | 210 | 32 (≈ 35.8 µM) | 2 (≈ 2.23 µM) |  |  |  |  |
| C[C@H](NC(=O)[C@@H](NC(=O)[C@H](CN)NC(=O)c1ccc(-c2ccc(Cl)cc2)cc1)[C@@H](C)O)C(=O)N[C@@H](CCCCN)C(=O)N[C@@H](C)C(=O)C(=O)NC(C)(C)C [Compound 108] ({Benzoyl(4-(4-Cl-Ph))}-[Dap]TAK[X1]-NHtBu) |  |  | 930 | 3700 | >64 | >64 |  |  |  |  |
| C[C@H](NC(=O)[C@@H](NC(=O)[C@H](CN)NC(=O)c1ccc(-c2ccc(Cl)cc2)cc1)[C@@H](C)O)C(=O)N[C@@H](CCCCN)C(=O)N[C@@H](C)C(=O)C(=O)NCCc1ccccn1 [Compound 104] ({Benzoyl(4-(4-Cl-Ph))}-[Dap]TAK[X1]-{NH(2-(2-pyridyl)ethyl)}) |  |  | 950 | 840 | >64 | 64 (≈ 77.8 µM) |  |  |  |  |
| C[C@H](NC(=O)[C@H](CCCCN)NC(=O)[C@H](C)NC(=O)[C@@H](NC(=O)[C@H](CCN)NC(=O)c1ccc(-c2ccc(Cl)cc2)cc1)[C@@H](C)O)B(O)O [Compound 119] ({Benzoyl(4-(4-Cl-Ph))}-[Dab]TAK-boroAla) |  |  | 10 | 120 | 2 (≈ 2.84 µM) | 1 (≈ 1.42 µM) |  |  |  |  |
| CCCCc1ccc(-c2ccc(C(=O)N[C@@H](CCN)C(=O)N[C@H](C(=O)N[C@@H](C)C(=O)N[C@@H](CCCCN)C(=O)N[C@@H](C)C(=O)C3OC3C)[C@@H](C)O)cc2)cc1 (single isomer, unassigned) [Compound 205 P1] |  |  | > 10000 | > 10000 |  |  | 32 (≈ 41.8 µM) | >64 |  |  |
| CCCCc1ccc(-c2ccc(C(=O)N[C@@H](CCN)C(=O)N[C@H](C(=O)N[C@@H](C)C(=O)N[C@@H](CCCCN)C(=O)N[C@@H](C)C(=O)CCl)[C@@H](C)O)cc2)cc1 [Compound 211] ({Biphenylcarbonyl(4'-Bu)}-[Dab]TAKA-CH2Cl) |  |  | 380 | 390 | 16 (≈ 21.1 µM) | 4 (≈ 5.27 µM) |  |  |  |  |
| CC(C)NC(=O)C(=O)[C@H](C)NC(=O)[C@H](CCCCN)NC(=O)[C@H](C)NC(=O)[C@@H](NC(=O)[C@H](CN)NC(=O)c1ccc(-c2ccc(Cl)cc2)cc1)[C@@H](C)O [Compound 103] ({Benzoyl(4-(4-Cl-Ph))}-[Dap]TAK[X1]-NHiPr) |  |  | 1100 | 1400 | >64 | >64 |  |  |  |  |
| C[C@H](NC(=O)[C@H](CCCCN)NC(=O)[C@H](C)NC(=O)[C@@H](NC(=O)[C@H](CCCCN)NC(=O)N1CCC(C)(c2ccccc2)CC1)[C@@H](C)O)B1O[C@@H]2C[C@@H]3C[C@@H](C3(C)C)[C@]2(C)O1 [Compound 130] ({X9-CO}-KTAK-{boroAla((+)-pinanediol)}) |  |  | 270 | 280 | >64 | 64 (≈ 75 µM) |  |  |  |  |
| COC(=O)CNC(=O)C(=O)[C@H](C)NC(=O)[C@H](CCCCN)NC(=O)[C@H](C)NC(=O)[C@@H](NC(=O)[C@H](CN)NC(=O)c1ccc(-c2ccc(Cl)cc2)cc1)[C@@H](C)O [Compound 111] ({Benzoyl(4-(4-Cl-Ph))}-[Dap]TAK[X1]G-OMe) |  |  | 360 | 690 | 16 (≈ 20.3 µM) | 16 (≈ 20.3 µM) |  |  |  |  |
| CCCCc1ccc(-c2ccc(C(=O)N[C@@H](CCN)C(=O)N[C@H](C(=O)N[C@@H](C)C(=O)N[C@@H](CCCCN)C(=O)N[C@@H](C)C(=O)C3CO3)[C@@H](C)O)cc2)cc1 (single isomer, unassigned) [Compound 201 P2] |  |  | 150 | 210 |  |  |  |  | 5.7 (≈ 7.58 µM) | 2 (≈ 2.66 µM) |
| CCCCc1ccc(-c2ccc(C(=O)N[C@@H](CCN)C(=O)N[C@H](C(=O)N[C@@H](C)C(=O)N[C@@H](CCCCN)C(=O)N[C@@H](C)C(=O)C(F)(F)F)[C@@H](C)O)cc2)cc1 [Compound 210] ({Biphenylcarbonyl(4'-Bu)}-[Dab]TAKA-CF3) |  |  | 260 | 2300 | 4 (≈ 5.14 µM) | 11 (≈ 14.1 µM) |  |  |  |  |
| CCCCCCCCCC(=O)N[C@@H](CCCCN)C(=O)N[C@H](C(=O)N[C@@H](C)C(=O)N[C@@H](CC(N)=O)C(=O)NC(C)C(=O)C(=O)NC)C(C)O (stereo partly drawn) [Compound 107] (Decanoyl-K[Thr(3ξ)]AN[ξ3Amino2oxobutanoyl]-NHMe) |  |  | 3200 | 360 | >64 | >64 |  |  |  |  |
| CCCCCCCCCCCCCC(=O)N[C@@H](CCCCN)C(=O)N[C@@H](C)C(=O)N[C@@H](CCCCN)C(=O)N[C@@H](C)B1O[C@@H]2C[C@@H]3C[C@@H](C3(C)C)[C@]2(C)O1 [Compound 123] |  |  | 11000 | 7800 | 4 (≈ 5.26 µM) | 2 (≈ 2.63 µM) |  |  |  |  |
